# Data as given in a melting point compilation (Tetko et al.; mined from patent text by program, amines drawn as free bases though some values may be those of a salt).
row,Compound,melting point
1,CC1(C)OC(C=Cc2ccnc3ccccc23)=CC1=O,117 to 118 °C
2,O=C(O)c1c2c(nc3ccc(F)cc13)-c1ccc(-c3ccc(F)cc3)cc1CC2,> 300 °C
3,CCc1cccc(Nc2nc(OCC3CCCCC3)c3[nH]cnc3n2)c1,180 to 183 °C
4,CC(C)n1c(=O)c2cc(C(=O)O)cn2c2ccccc21,238 to 240 °C
5,CCC(CC)(CO)CCCCS(N)(=O)=O,64 to 65 °C
6,CC(=O)c1ccc2c(c1)c(=O)c(C(=O)O)cn2Cc1ccc(F)cc1,206 to 208 °C
7,CCCOc1ccccc1-c1ccc(C(=O)O)c(=O)[nH]1,194 to 196 °C
8,CCOC(=O)C(C(=O)C(C)C)C(CC(=O)C(C)C)c1ccc(F)cc1 (stereo unspecified),57 to 60 °C
9,O=C(Nc1ccc2nc(CN3CCCC3)ccc2c1)c1ccc(-c2ccc(F)cc2)nc1,210 °C
10,CC(=O)Nc1c(CC(=O)O)cccc1C(=O)c1ccccc1,188 to 190 °C
11,Cc1ccnc2c(Oc3ccccc3NS(=O)(=O)c3ccc(Cl)cc3)cccc12,123 to 125 °C
12,CC(C)(c1ccccc1)c1ccc(N)c([N+](=O)[O-])c1,92 to 94 °C
13,CCCCc1nc2cc(Cl)cc(C(=O)O)c2n1Cc1ccc(-c2ccccc2-c2nnn[nH]2)cc1,232 to 234 °C
14,COc1ccc(-c2nc(C)c(Cl)[nH]2)cc1,182 to 186 °C
15,CNc1nc2c(C)cccc2c2c1CCN2c1ccccc1C,165 to 167 °C
16,NC(=O)c1ccc(COc2cccc3c2CN(C2CCC(=O)NC2=O)C3=O)cc1 (stereo unspecified),278 to 280 °C
17,CCCCCCCCCCCCCCCCC=Cc1ccc(O)c(C(=O)O)c1,95 °C
18,CS(=O)(=O)Nc1ccc(C(O)C2CCN(CCc3ccccc3)CC2)cc1 (stereo unspecified),164 to 166 °C
19,Cc1cc(C)c([N+](=O)[O-])cc1N1CCC1=O,102 °C
20,c1cncc(C2CCCCC2)c1,78 to 80 °C
21,OC(CCN1CC=C(c2ccc(Cl)cc2)CC1)c1ccc(Cl)cc1 (stereo unspecified),154 to 155 °C
22,CONC(=N)c1ccc(-c2ccc(-c3ccc(C(=N)NOC)o3)cc2)cc1,194 to 196 °C
23,CC1=C(C#N)C(=C(C#N)C#N)OC1(C)c1ccc(Cl)cc1Cl (stereo unspecified),239 to 240 °C
24,O=C(O)c1nc(C(Cl)(Cl)Cl)n(-c2cccc(C(F)(F)F)c2)n1,126 °C

row,Compound,melting point
1,Cn1c(=O)c2sccc2n2cnc(-c3nc(C4CC4)no3)c12,206 to 207 °C
2,CC(CO)(Cc1c[nH]c2ccccc12)NC(=O)OC1C2CC3CC(C2)CC1C3 (stereo unspecified),72 to 74 °C
3,CCOc1ccc([N+](=O)[O-])c(NC)n1,101 °C
4,CN(C)c1ccc2cc(-c3ccn4ccnc4c3C#N)ccc2c1,268 to 269 °C
5,O=C(/C=C/C=C/C(=O)NCCCOc1cccc(CN2CCCC2)c1)NCCCOc1cccc(CN2CCCC2)c1,178 to 180 °C
6,Cc1ccc2c(c1)C=Cc1cc(C)ccc1C2c1cn(Cc2nc(C(=O)O)cs2)c(=O)[nH]c1=S,200 to 205 °C
7,Cc1cc(C)cc(C(=O)N[C@H](Cc2ccccc2)C(=O)N[C@@H](Cc2c[nH]c3ccccc23)C(=O)O)c1,95 to 98 °C
8,Cc1ccc(-n2c(-c3ccc(Br)cc3)ccc2-c2ccc(Br)cc2)cc1,262 to 264 °C
9,NS(=O)(=O)c1ccc(-c2noc(-c3cnc4c(C(F)(F)F)cc(-c5ccc(C(F)(F)F)cc5)cn34)n2)cc1,292 °C
10,Cc1cccc(NC(c2ccccc2O)c2ccc3cccnc3c2O)n1 (stereo unspecified),189 to 191 °C
11,O=C(Cn1nccc1-c1ccc(Oc2ccc(F)cc2)cc1)N1CCCC1,90 to 95 °C
12,Cc1c2c(nc3ccccc13)CCN(C(=O)C(C)C)CC2,107 °C
13,CC(C)CC(NC(=O)C(Cc1c[nH]cn1)NC(=O)C(Cc1cccc2ccccc12)Cc1cccc2ccccc12)C(O)C(=O)OC(C)C (stereo unspecified),93 to 98 °C
14,Brc1ccc(N2CCCN(c3ccc(Br)cn3)CC2)nc1,178 to 181 °C
15,CC(C(=O)CCl)c1ccc(-c2ccccc2)c(F)c1 (stereo unspecified),57 to 59 °C
16,CC1(C)SC(=S)N(Cc2ccco2)C(=O)C1NC(=O)c1ccccc1 (stereo unspecified),168 to 169 °C
17,O=[N+]([O-])c1cc(F)c(N2CCSCC2)c(F)c1,104 to 105 °C
18,CC(C)(C)c1cc(C(C)(C)C)cc(C(C)(C)CC(=O)OP2(=O)Oc3c(cc(C(C)(C)C)cc3C(C)(C)C)Cc3cc(C(C)(C)C)cc(C(C)(C)C)c3O2)c1,188 °C
19,NNN=CN(N)CC(=O)O,148 to 149 °C
20,CCOC(=O)c1nc2scc(COCc3ccccc3)c2c(=O)[nH]1,155 to 156 °C
21,CCCCOc1ccc2c(O)c(C(=O)NCCO)nc(Cl)c2c1,118 to 120 °C
22,CCCC[C@H](NC(=O)[C@H](CC(C)C)NC(=O)c1cc(F)ccc1F)C(=O)CSCc1ccco1,102 °C
23,CC(C)(C(=O)Nc1ccc(Cl)cc1)/C(F)=C\F,100 °C
24,O=C(O)C1Cc2cc3c(-c4ccccc4F)noc3cc2O1 (stereo unspecified),194 to 196 °C

row,Compound,melting point
1,CS(=O)(=O)Nc1c([N+](=O)[O-])cnn1-c1c(Cl)cc(C(F)(F)F)c(F)c1Cl,107 to 115 °C
2,C=Cc1cc(C(C)NC(=O)OC(C)(C)C)cc(F)c1N (stereo unspecified),59 to 61 °C
3,CC(C)NCC(O)COc1ccccc1C1=NNC(=O)CC1 (stereo unspecified),124 to 126 °C
4,N#Cc1ccc(-c2cn(-c3ccc(C#N)cc3)c(SCCO)n2)cc1,> 300 °C
5,Cc1cccc(N=C2NCCN2C(=O)Nc2ccc(F)cc2)c1,178 °C
6,COc1cc2c(cc1OC)C(=CO)C(=O)N2,216 to 217 °C
7,Nc1nc(O)c2c(CCCc3ccc(C(=O)N[C@@H](CCC(=O)O)C(=O)O)cc3)cnc-2[nH]1,190 to 193 °C
8,O=C(c1cc(Cl)cc(Cl)c1)N1CCc2cc(S(=O)(=O)N3CCN(c4cccc(Cl)c4)CC3)ccc21,262 to 263 °C
9,CCCCCCCCOC(=O)/C=C/c1ccccc1C1C(C(=O)OCC)=C(C)NC(C)=C1C(=O)OCC,110 to 112 °C
10,O=C(Nc1ccc(F)cc1)Oc1ccc2c(c1)N(Cc1ccccc1)CCC2,130 °C
11,CC(=O)O[C@H]1C[C@@H](N=O)C(Cl)O[C@@H]1COS(=O)(=O)c1ccc(C)cc1 (stereo partly specified),148 to 150 °C
12,CCCc1c(OCC#CCCCC(=O)NCCCCc2cccnc2)ccc(C(C)=O)c1O,77 to 80 °C
13,Cc1sc2ncc(C(O)CCc3ccccc3)n2c1C (stereo unspecified),153 to 154 °C
14,Cc1nc2c(C)cccn2c(=O)c1CCN1CCC(c2noc3cc(F)ccc23)CC1,200 °C
15,CCC(C)c1ccc(-n2c(-c3cc(C)c(OCCO)c(C)c3)nc3cc(F)ccc3c2=O)cc1 (stereo unspecified),53.9 to 54.4 °C
16,O=C(O)c1cc(C(=O)O)c2cc(Cc3ccc(F)cc3)cnc2c1O,279 to 282 °C
17,CC1(C)OC(c2ccc(S(C)(=O)=O)c(F)c2)=C(c2ccc(N)cc2)C1=O,199 to 200 °C
18,CCOC(=O)C1=C(C)NC(c2cnc(N)s2)=NC1c1ccc(F)cc1Cl (stereo unspecified),132 to 135 °C
19,Clc1c2nc3ccccc3c-2[nH]c2ccccc12,220 to 222 °C
20,CSc1c(Cl)nc(N2CCNCC2)nc1NC(C)C,147 °C
21,"CN1C(=O)CCC2(C)c3ccc(SCc4cc5ccccc5cn4)cc3CCC12 (single isomer, unassigned; (+))",129 to 130 °C
22,Cc1cccc(NC(=O)c2cc(C(F)(F)F)nn2-c2ccccc2Cl)c1NC(=O)C(C)C,215 to 220 °C
23,CCCCC(=O)NC1CCN(CCNC(=O)c2nn(C(C)C)c3ccccc23)CC1,107 to 109 °C
24,COCn1cc(C(=O)c2ccccc2)c(-c2cccc(Cl)c2)n1,106 to 108 °C

row,Compound,melting point
1,CN1Cc2c(C#CC(C)(C)O)ncn2-c2cccc(Cl)c2C1=O,194 to 195 °C
2,CCOC(=O)C=Cc1ccc(C(=O)Cc2ccccc2)cc1,110 to 111 °C
3,Cc1ccnc(C=Cc2ccccc2)n1,65 to 67 °C
4,CCOC(=O)/C(=N\O[C@H]1CCC[C@@H](C)C1)c1csc(N)n1 (relative stereo),91 to 93 °C
5,O=CNc1nc(-c2cccnc2)c(Cl)s1,229 °C
6,COC(=O)/C(=N/O)c1cccc([N+](=O)[O-])c1,140 °C
7,COc1ccc(C(OCC2OC(n3cnc4c(N)nc(F)nc43)CC2O)(c2ccccc2)c2ccc(OC)cc2)cc1 (stereo unspecified),239 to 243 °C
8,CCCCCS(=O)(=O)NC(=O)CCc1cc(OC(C)C)nn1Cc1ccc(Cl)cc1Cl,126 to 129 °C
9,CC(Oc1ccc(Oc2nc3ccc(Cl)cc3s2)cc1)C(=S)OC[Si](C)(C)C (stereo unspecified),90 °C
10,NC(=O)[C@@H]1C[C@H](C(=O)O)Nc2cc(Cl)cc(Cl)c21 (relative stereo),220 to 222 °C
11,O=c1c2cccnc2c(-c2ccccc2)cn1Cc1ccccc1,166 to 167 °C
12,CC(=O)Nc1ccc(OC/C=C(\C)C=O)cc1,127 to 130 °C
13,C=C(n1c(=O)n(CCCl)c2ccccc21)C(F)(F)F,158 to 160 °C
14,CC1(C)C(=O)N(c2ccc([N+](=O)[O-])c(C(F)(F)F)c2)C(=O)N1CCCN1C(=O)N(c2ccc([N+](=O)[O-])c(C(F)(F)F)c2)C(=O)C1(C)C,164 to 165 °C
15,C[C@]1(COC(=O)N2CCCc3cc(Cl)ccc32)Cn2cc([N+](=O)[O-])nc2O1,172 to 174 °C
16,CCCCNc1cncc(C(=NCCc2ccccc2Cl)NC#N)c1,122 °C
17,C[C@@H](C(=O)OC(C)(C)C)N(Cc1ccccc1)S(=O)(=O)c1ccc2c(Cl)cnc(Cl)c2c1,92 to 96 °C
18,Cc1c(C)n(CC=Cc2ccccc2)c2c(OCc3ccccc3)nncc12,132 to 134 °C
19,COC(=O)C(=Cc1cc(OC)cc(OC)c1)c1ccc(Oc2ccc(CO)cc2)cc1,93 to 95 °C
20,COc1cc2c(cc1OC)[C@@H]1CN(C)CC[C@@H]1N=C2c1ccc(NC(=O)c2ccccc2)cc1 (relative stereo),240 to 245 °C
21,CC(C)(C)C(c1csc2ccccc12)[C@@H](OC(N)=O)c1nc(-c2ccccc2)c[nH]1 (stereo partly specified),116 to 120 °C
22,O=C(O)C1CCc2onc(-c3ccc(Cl)cc3)c2CC1 (stereo unspecified),144 to 145 °C
23,Cc1scc(C2=NOCCO2)c1S(=O)(=O)NC(=O)n1nc(OC(C)C)n(C)c1=O,199 °C
24,COc1cc2nc(-c3cc(C)c(O)c(C)c3)[nH]c(=O)c2c(OC)c1CN1CCOCC1,237 to 239 °C
